The source made the active and inactive calls.
Legend:
[1] = general mammalian cell viability loss – activator set, cherry-pick, cytotoxicity control for miR-122 modulator project, dose response (AID 720690); type: functional, cell-based;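 also: HEK293T human cells scored for general mammalian cytotoxicity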
[2] = blockers of HIV-1 envelope-mediated cell-cell fusion – cherry-pick, dose response (AID 652057); type: functional, cell-based
[3] = blockers of HIV-1 ZM109 envelope-driven cell-cell fusion – HeLa effector, CEM target cells, luciferase, cherry-pick, dose response (AID 652058); type: functional, cell-based;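 also: luciferase signal from HIV-1 Env mediated cell-cell fusion of effector and target cells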
[4] = off-target signal loss in HeLa-CEM21 co-culture – HeLa F-luc CTL cells, cherry-picked, counter-screen for HIV-1 Env fusion inhibitor project, dose response (AID 652040); type: functional, cell-based;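 also: potency for signal decrease marking cytotoxic or nonspecific inhibition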
[5] = HIV-1 AD8 envelope cell-cell fusion blockers – cherry-pick, dose response (AID 652062); type: functional, cell-based;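 also: luciferase signal from cell-cell fusion driven by HIV-1 clade B AD8 Env; potency is for inhibitors of fusion seen as a drop in luminescence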
Vero [6] = experiment: cells; type: functional, cell-based; conditions: Chlorocebus sabaeus
Vero [7] = experiment: cells; type: functional; conditions: Chlorocebus sabaeus
[8] = A549 cell cytotoxicity, dose response, cytotoxicity control, plate reader, cherry-pick, antagonist series (AID 743412); type: functional, cell-based
[9] = toxicity toward HepG2 liver cells – cell-based, plate reader, cherry-pick, antagonist series, cytotoxicity control, dose response (AID 743416); type: functional
[10] = blockers of bursicon-stimulated LGR2 cAMP reporter – cell-based, HEK293, CRE-luciferase reporter, cherry pick, set 2, dose response (AID 743343); type: functional;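 also: transfected cells were stimulated with diluted bursicon conditioned medium after compound addition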
[11] = blockade of melanocortin 4 receptor signaling – cell-based, plate reader, cherry pick, counter-screen for LGR2 antagonist project, dose response (AID 743444); type: functional;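 also: transfected HEK 293 cells stimulated with alpha-MSH peptide; potency of inhibitors of the alpha-MSH evoked signal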
[12] = viability loss in HEK293 cells – cell-based, plate reader, cherry-picked samples, cytotoxicity control, dose response (AID 743446); type: functional
[13] = reduction of Shn3 3'UTR-driven luciferase in osteoblasts – cell-based, Clone20 osteoblasts, firefly luciferase, cherry-picked, dose response (AID 624132); type: functional;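 also: firefly luciferase luminescence from reporter carrying the Shn3 3'UTR in osteoblasts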
[14] = loss of viability in HepG2 cells – cell-based, CellTiter-Glo, cherry-picked, cytotoxicity control for Shn3 inhibitor project, dose response (AID 624134); type: functional
[15] = non-specific 3'UTR reporter inhibition in Clone20-Shn3RL – cell-based, Renilla luciferase, cherry-picked, counter-screen for Shn3 inhibitor project, dose response (AID 624133); type: functional
cells [16] = type: functional, cell-based
cells [17] = type: functional, cell-based; remark: listed apart in the source
[18] = viability loss in HepG2 hepatoma cells – cell-based, ATP luminescence, cherry-pick, activator set 2, cytotoxicity control, dose response (AID 1053143); type: functional
[19] = microbe, parasite or virus in culture; type: functional; conditions: Mycobacterium tuberculosis
Leucine aminopeptidase = target: T1, Leucine aminopeptidase (Plasmodium falciparum 3D7, UniProt Q8IL11); experiment: P. falciparum M17LAP inhibitors, primary screen, biochemical, fluorogenic H-Leu-NHMec substrate, 1536-well (AID 1619); type: functional
T1 sequence (Q8IL11 whole entry): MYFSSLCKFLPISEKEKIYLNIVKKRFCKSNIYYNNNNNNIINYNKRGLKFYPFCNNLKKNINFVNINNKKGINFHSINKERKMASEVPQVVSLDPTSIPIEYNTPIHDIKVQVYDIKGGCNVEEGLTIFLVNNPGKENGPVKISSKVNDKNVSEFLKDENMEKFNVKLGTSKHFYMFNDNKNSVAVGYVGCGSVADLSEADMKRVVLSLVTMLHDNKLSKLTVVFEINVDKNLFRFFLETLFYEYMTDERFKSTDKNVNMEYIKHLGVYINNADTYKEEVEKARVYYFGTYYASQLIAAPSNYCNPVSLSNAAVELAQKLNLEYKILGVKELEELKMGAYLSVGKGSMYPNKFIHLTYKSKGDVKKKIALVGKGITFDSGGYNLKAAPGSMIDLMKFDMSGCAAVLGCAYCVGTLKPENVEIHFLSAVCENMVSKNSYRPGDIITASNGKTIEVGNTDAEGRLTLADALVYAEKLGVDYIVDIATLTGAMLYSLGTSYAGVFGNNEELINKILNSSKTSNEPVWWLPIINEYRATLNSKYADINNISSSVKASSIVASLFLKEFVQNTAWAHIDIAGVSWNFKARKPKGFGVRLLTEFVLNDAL

Cytochrome P450 2C19 = Cytochrome P450 2C19 (Homo sapiens, UniProt P33261); experiment: Cytochrome panel assay with activity outcomes. Panel member name: p450-cyp2c19 Compounds with AC50 equal or less than 10 uM are considered active; type: functional; conditions: read-out: AC50
Cytochrome P450 2D6 = Cytochrome P450 2D6 (Homo sapiens, UniProt P10635);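 also: CYP2D6 member of a cytochrome P450 panel assay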
Cytochrome P450 1A2 = target: T2, Cytochrome P450 1A2 (Homo sapiens, UniProt P05177);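 also: PubChem cytochrome P450 panel assay, CYP1A2 panel member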
T2 sequence (P05177 whole entry): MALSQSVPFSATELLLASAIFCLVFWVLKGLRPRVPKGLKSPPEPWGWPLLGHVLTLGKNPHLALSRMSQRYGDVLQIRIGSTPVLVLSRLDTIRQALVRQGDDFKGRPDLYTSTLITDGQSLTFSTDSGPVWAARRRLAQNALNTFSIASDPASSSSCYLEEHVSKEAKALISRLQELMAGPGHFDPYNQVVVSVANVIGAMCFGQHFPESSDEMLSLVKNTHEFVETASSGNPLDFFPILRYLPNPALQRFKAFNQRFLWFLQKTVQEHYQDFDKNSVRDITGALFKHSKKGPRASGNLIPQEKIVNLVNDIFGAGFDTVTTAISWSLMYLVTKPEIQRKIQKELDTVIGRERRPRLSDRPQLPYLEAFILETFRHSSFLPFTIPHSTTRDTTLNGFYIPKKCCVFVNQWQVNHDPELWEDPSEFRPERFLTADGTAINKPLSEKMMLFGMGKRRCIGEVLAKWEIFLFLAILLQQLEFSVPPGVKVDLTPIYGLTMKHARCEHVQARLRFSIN

Cytochrome P450 2C9 = Cytochrome P450 2C9 (Homo sapiens, UniProt P11712)
[20] = target: Induced myeloid leukemia cell differentiation protein Mcl-1 (Homo sapiens, UniProt Q07820); type: functional
[21] = target: T3, Carboxy-terminal domain RNA polymerase II polypeptide A small phosphatase 1 (Homo sapiens, UniProt Q9GZU7); experiment: CTDSP1 inhibitors, concentration-response, biochemical, absorbance readout, ultra-high-throughput screen actives (AID 540297); type: functional
T3 sequence (Q9GZU7 whole entry): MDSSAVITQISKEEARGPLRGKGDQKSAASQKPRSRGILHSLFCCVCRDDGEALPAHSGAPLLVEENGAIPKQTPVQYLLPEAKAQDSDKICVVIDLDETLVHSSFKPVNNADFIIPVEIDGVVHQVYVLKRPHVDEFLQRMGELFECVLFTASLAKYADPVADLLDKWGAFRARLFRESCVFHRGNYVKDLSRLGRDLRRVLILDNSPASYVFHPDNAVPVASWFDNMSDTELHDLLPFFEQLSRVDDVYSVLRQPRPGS

[22] = target: T4, Heat shock factor protein 1 (Mus musculus, UniProt P38532); experiment: decrease of HSF1-responsive luciferase luminescence – cell-based, NIH3T3, dose retest, confirmation (AID 2382); type: functional;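 also: NIH3T3 fibroblasts with HSF1-driven luciferase reporter stressed by proteasome inhibitor MG132; luminescence from HSF1-driven luciferase expression after 8 hours of MG132 stress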
T4 sequence (P38532 whole entry): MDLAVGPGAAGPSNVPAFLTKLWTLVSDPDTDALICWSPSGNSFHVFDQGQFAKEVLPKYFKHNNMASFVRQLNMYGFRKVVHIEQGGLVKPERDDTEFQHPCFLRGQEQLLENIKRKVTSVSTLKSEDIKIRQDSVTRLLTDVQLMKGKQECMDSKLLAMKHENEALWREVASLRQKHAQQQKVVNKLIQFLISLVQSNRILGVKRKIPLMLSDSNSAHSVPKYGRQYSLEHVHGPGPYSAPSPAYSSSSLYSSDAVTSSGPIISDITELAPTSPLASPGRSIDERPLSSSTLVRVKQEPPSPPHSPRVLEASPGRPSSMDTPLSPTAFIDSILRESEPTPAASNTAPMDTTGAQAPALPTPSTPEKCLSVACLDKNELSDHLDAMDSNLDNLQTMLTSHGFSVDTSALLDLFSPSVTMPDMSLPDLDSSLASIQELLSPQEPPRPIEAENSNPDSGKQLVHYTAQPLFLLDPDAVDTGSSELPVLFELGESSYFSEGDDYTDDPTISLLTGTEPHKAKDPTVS

[23] = target: Luciferin 4-monooxygenase (Photinus pyralis, UniProt P08659); experiment: inhibition of purified Photinus pyralis luciferase – biochemical, luminescence, dose response (AID 1891)
[24] = Luminescence Cell-Based Dose Confirmation HTS to Identify Inhibitors of Platelet Dense Granule Release. [Related pubchem assays: 1663 (Primary HTS), 1678 (Summary of Project)]; type: functional
[25] = target: FAD-linked sulfhydryl oxidase ALR (Homo sapiens, UniProt P55789); experiment: ALR-catalysed DTT oxidation blockers – biochemical, H2O2 detection, luminescence, cherry-pick, dose response (AID 493248)
Genome polyprotein = Genome polyprotein (dengue virus type 2, UniProt P29990); experiment: flavivirus cap methylation enzyme inhibition – biochemical, confirmation dose response, primary screen (AID 588689); type: functional
Protein skinhead-1 = target: T5, Protein skinhead-1 (Caenorhabditis elegans, UniProt P34707); type: functional
T5 sequence (P34707 whole entry): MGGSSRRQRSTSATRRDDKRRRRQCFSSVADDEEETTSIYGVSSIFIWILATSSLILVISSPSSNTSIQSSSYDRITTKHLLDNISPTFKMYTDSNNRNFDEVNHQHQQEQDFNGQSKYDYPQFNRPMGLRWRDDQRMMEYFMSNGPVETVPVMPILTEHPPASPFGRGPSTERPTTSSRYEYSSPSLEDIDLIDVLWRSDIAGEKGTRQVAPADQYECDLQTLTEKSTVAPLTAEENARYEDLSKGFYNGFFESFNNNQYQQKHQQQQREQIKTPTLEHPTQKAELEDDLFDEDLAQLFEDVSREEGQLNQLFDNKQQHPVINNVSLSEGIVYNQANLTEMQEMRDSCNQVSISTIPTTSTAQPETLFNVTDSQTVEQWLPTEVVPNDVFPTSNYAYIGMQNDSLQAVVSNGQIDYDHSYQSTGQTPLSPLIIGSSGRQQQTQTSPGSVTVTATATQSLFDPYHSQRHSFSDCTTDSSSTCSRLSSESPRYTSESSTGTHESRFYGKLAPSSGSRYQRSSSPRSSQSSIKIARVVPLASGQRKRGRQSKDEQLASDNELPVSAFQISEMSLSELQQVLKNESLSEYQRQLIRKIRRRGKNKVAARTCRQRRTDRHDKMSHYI

Fatty acid synthase [26] = target: T6, Fatty acid synthase (Homo sapiens, UniProt P49327); experiment: inhibition of human FAS-TE enzyme activity – biochemical, endpoint fluorescence intensity, uHTS hits, dose response (AID 624327); type: functional;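 also: fluorescence from hydrolysis of an O-methyl fluorescein acyl ester substrate by the enzyme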
Fatty acid synthase [27] = target: T6, Fatty acid synthase; experiment: inhibition of human FAS-TE enzyme activity – biochemical, kinetic fluorescence intensity, dose response (AID 624326); type: functional;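 also: rate of fluorescence rise from hydrolysis of a fluorogenic O-methyl fluorescein ester substrate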

Cytochrome P450 2C9, sequence (P11712 whole entry): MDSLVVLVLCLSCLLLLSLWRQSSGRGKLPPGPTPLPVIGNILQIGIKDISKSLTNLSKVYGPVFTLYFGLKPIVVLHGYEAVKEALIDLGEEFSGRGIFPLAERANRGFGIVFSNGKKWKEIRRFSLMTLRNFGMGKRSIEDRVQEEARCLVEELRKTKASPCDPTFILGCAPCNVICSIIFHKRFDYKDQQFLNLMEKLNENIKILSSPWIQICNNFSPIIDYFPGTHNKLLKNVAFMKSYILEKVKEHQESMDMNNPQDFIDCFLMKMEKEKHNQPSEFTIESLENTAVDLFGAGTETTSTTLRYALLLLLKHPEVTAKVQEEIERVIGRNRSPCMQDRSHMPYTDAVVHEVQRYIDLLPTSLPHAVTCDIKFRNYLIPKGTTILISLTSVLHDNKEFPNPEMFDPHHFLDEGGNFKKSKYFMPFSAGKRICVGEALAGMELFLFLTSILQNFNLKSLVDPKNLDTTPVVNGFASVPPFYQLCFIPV
T6 sequence (P49327 whole entry): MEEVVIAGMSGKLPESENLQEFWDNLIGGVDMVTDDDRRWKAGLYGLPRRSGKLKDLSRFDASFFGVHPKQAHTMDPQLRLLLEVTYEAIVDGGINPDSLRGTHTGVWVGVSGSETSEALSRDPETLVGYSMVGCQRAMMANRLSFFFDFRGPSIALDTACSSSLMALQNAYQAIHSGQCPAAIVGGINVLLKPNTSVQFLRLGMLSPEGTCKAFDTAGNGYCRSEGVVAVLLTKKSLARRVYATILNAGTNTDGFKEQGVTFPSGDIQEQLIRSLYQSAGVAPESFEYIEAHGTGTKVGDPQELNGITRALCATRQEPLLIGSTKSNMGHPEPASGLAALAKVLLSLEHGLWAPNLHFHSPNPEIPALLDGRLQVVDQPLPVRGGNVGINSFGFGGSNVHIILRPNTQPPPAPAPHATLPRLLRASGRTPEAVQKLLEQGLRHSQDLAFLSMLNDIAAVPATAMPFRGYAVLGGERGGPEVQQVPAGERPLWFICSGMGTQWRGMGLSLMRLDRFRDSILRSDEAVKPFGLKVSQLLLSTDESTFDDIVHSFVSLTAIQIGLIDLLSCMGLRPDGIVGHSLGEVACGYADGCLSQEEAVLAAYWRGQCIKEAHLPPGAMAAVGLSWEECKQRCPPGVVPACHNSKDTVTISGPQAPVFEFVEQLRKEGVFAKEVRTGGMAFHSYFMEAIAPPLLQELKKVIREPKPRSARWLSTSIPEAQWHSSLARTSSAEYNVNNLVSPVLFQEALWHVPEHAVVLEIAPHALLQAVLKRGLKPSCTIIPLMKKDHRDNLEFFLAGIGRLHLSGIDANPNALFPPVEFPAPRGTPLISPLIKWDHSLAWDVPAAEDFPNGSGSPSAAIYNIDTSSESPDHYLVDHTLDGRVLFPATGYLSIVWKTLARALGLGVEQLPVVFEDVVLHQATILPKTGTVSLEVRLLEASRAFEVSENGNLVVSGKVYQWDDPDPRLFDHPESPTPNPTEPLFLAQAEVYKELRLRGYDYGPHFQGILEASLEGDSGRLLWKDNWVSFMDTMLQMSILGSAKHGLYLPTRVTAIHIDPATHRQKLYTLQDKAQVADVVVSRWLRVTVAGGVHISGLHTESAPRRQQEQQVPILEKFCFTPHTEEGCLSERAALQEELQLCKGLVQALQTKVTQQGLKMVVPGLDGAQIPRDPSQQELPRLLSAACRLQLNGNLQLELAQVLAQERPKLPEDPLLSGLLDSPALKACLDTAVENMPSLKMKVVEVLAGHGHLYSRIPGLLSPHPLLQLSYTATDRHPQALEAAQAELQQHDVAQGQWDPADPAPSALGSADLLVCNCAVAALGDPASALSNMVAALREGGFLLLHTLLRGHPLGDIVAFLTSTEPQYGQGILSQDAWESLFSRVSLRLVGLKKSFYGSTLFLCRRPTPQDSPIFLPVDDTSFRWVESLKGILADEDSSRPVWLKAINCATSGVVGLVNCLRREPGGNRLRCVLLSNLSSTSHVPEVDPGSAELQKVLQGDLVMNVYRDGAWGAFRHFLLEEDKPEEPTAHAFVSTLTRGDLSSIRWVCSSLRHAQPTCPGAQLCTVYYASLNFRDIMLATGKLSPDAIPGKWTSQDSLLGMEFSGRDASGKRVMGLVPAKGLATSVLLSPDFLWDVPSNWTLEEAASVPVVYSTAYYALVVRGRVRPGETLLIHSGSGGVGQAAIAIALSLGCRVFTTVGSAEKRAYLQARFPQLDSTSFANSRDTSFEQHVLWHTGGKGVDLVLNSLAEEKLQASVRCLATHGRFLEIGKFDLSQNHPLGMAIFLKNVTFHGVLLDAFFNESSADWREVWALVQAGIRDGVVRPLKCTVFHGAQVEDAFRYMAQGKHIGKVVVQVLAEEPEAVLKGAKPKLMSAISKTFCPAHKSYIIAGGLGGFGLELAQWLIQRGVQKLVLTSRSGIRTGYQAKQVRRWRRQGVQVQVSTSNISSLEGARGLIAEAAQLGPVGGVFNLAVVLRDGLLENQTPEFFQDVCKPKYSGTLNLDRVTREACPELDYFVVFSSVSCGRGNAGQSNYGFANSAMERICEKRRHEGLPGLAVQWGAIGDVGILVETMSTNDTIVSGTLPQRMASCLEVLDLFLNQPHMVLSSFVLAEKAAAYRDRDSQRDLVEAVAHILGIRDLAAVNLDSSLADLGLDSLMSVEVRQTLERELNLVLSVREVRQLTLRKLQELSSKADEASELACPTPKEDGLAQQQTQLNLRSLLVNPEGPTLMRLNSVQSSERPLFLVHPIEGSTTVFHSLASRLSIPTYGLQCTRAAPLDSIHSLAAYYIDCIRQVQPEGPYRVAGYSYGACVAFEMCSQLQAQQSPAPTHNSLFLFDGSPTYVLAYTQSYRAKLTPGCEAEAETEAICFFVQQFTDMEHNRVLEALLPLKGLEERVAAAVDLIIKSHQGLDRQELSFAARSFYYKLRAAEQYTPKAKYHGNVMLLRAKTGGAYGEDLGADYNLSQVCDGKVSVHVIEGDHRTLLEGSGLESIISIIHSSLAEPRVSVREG
FAD-linked sulfhydryl oxidase ALR, sequence (P55789 whole entry): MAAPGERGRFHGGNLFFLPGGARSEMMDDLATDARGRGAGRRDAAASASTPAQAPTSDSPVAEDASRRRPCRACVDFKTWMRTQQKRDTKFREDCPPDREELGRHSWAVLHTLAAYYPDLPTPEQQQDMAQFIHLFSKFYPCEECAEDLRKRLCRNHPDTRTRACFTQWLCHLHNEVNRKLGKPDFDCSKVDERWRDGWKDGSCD
Cytochrome P450 2D6, sequence (P10635 whole entry): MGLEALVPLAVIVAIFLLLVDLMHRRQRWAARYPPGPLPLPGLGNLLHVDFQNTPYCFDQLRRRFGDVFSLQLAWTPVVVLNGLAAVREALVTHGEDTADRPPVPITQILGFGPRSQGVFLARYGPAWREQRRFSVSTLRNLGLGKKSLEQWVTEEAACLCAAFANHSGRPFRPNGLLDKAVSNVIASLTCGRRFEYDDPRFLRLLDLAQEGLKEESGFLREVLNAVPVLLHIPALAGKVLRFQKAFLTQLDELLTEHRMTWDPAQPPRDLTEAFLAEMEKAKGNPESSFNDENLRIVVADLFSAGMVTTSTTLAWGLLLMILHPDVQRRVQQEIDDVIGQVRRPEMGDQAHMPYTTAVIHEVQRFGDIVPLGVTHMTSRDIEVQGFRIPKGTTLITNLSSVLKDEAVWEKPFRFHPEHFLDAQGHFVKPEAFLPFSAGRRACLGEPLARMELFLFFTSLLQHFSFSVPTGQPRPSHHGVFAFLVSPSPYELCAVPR
Genome polyprotein, sequence (P29990 2492-3391 limits assumed): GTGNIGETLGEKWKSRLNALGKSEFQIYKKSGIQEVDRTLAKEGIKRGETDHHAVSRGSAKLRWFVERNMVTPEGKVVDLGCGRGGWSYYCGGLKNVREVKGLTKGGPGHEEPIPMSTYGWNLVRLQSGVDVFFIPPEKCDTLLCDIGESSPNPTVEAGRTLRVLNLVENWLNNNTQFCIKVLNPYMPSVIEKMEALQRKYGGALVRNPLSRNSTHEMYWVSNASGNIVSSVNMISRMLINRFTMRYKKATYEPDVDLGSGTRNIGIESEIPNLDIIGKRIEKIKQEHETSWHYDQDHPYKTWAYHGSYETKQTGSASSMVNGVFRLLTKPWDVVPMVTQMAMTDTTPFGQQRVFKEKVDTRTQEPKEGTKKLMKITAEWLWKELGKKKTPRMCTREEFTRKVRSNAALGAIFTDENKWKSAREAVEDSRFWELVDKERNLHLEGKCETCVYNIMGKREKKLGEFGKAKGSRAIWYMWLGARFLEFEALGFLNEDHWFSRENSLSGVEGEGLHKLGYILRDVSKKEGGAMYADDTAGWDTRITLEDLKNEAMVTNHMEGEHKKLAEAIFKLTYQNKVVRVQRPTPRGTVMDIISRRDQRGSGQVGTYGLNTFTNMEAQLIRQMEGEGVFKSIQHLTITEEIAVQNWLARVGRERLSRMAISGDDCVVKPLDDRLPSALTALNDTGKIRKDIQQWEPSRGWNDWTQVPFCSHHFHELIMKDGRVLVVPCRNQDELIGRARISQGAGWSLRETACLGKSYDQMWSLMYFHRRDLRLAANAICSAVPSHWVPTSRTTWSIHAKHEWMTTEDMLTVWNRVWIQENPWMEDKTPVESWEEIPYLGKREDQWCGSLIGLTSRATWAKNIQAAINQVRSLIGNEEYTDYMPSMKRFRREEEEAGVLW
Cytochrome P450 2C19, sequence (P33261 whole entry): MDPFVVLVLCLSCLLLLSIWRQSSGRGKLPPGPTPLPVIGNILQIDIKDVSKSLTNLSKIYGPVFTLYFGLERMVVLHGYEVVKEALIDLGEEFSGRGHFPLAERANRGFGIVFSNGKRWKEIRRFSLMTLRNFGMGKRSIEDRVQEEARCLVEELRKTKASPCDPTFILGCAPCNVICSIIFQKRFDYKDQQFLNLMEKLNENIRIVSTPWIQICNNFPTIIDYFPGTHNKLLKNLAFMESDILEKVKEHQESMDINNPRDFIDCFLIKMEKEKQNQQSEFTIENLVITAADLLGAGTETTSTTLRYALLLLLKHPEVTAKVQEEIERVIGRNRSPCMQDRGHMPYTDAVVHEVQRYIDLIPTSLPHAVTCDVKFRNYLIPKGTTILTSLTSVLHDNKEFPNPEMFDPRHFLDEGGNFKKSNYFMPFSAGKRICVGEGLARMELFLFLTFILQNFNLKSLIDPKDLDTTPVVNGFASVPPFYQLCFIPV

Cc1ccccc1-c1ccc([C@@H]2[C@@H](CO)N3CCCCN(C(=O)Nc4ccc(F)cc4)C[C@@H]23)cc1
AC50 [1]: 31.1 µM (active)

COC(=O)c1c(C)oc(C)c1S(=O)(=O)NC(c1ccccc1)c1ccccc1
AC50 [2]: 5.64 µM (active) | AC50 [3]: 6.38 µM (active) | AC50 [4]: 6.55 µM (active) | AC50 [5]: 6.05 µM (active)

CCC1=C(CC2NCCc3ccccc32)CC2c3cc(OC)c(OC)cc3CCN2C1 (stereo not given)
IC50 (Vero [6]): > 25 µM (active) | CC50 (Vero [7]): 5.14 µM (active) | AC50 [8]: 2.13 µM (active) | AC50 [9]: 4.16 µM (active) | AC50 [10]: 6.49 µM (active) | AC50 [11]: 7.63 µM (active) | AC50 [12]: 33.6 µM (active)

CN(C)C1=NC[C@H](Cc2ccccc2)N1CCCC1CCCC1
AC50 [13]: 2.63 µM (active) | AC50 [14]: > 70 µM (inactive) | AC50 [15]: 2.5 µM (active)

O=C(Nc1ncccc1O)c1ccc2c(c1)OCO2
EC50 (cells [16]): 99.2 µM (active) | EC50 (cells [17]): 51.7 µM (active) | AC50 [18]: 26 µM (active)

Oc1cc(Nc2ccccc2)cc2cccnc12
CC50 [19]: 7.2 µM (active) | AC50 [13]: 1.79 µM (active) | AC50 [14]: 36 µM (active) | AC50 [15]: 6.62 µM (active)

Cc1occc1C(=O)Nc1sc2c(c1C(N)=O)CCCCC2
IC50 (Leucine aminopeptidase): 54.6 µM (active)

COc1cc(NC(=O)c2cccs2)ccc1NC(=O)c1ccco1
AC50 [18]: 12 µM (active)

COc1ccccc1/C=C/C=N/N1CCN(Cc2ccc(Cl)cc2)CC1.Cl
AC50 (Cytochrome P450 2C19): 6.31 µM (inconclusive) | AC50 (Cytochrome P450 2D6): 8.91 µM (inconclusive) | AC50 (Cytochrome P450 1A2): 15.8 µM (inconclusive) | AC50 (Cytochrome P450 2C9): inconclusive

COc1ccc(OC[C@@H](CO)OC)cc1
AC50 (Cytochrome P450 2C9): inconclusive

COc1ccc(C(CC(=O)N2CCCC2)c2c(OC)cc(OC)c3c(-c4ccccc4)cc(=O)oc23)cc1 (stereo not given)
IC50 [20]: 4.62 µM (active) | IC50 [21]: 9.82 µM (active)

COc1ccccc1NC(=O)Nc1nc(C(N)Cc2ccc(C(F)(F)F)cc2)cs1 (stereo not given)
AC50 [13]: 10.3 µM (active) | AC50 [14]: 25.1 µM (active) | AC50 [15]: 24 µM (active)

N=c1c2c(ncn1CCCO)Oc1c(ccc3ccccc13)C2c1ccccc1 (stereo not given)
EC50 [22]: > 195 µM (not active) | EC50 [23]: > 112 µM (not active) | EC50 [24]: > 112 µM (not active) | CC50 (Vero [7]): 15.4 µM (active) | AC50 [18]: 26 µM (active)

CC(C)CN(C(=O)C(c1ccccc1)c1ccccc1)c1c(N)n(CC(C)C)c(=O)[nH]c1=O
AC50 [2]: 1.62 µM (active) | AC50 [3]: 0.619 µM (active) | AC50 [4]: 1.72 µM (active) | AC50 [5]: 1.91 µM (active)

Nc1ncnc2c1ncn2[C@@H]1CCCO1
AC50 (Cytochrome P450 2C9): inconclusive

Cc1ccc(C(=O)C[n+]2ccccc2C)cc1[N+](=O)[O-]
IC50 (Vero [6]): 5.84 µM (active)

O=C(CCN1C(=O)/C(=C/c2ccccc2Cl)SC1=S)Nc1ccccc1C(=O)O
AC50 [25]: 2.46 µM (active) | IC50 (Genome polyprotein): 77.7 µM (active) | IC50 (Protein skinhead-1): > 100 µM (inactive) | IC50 (Fatty acid synthase [26]): 6.5 µM (active) | IC50 (Fatty acid synthase [27]): 5.37 µM (active)

Reference: ChEMBL document CHEMBL1201862, “PubChem BioAssay data set” (2004)
